Source: BindingDB's records for doi:10.1021/jm00067a003 (Upjohn Laboratories, 1993)

Biological target: 5-hydroxytryptamine receptor 1A (Bos taurus)
Assay: Binding affinity at 5-hydroxytryptamine 1A receptor in bovine hippocampal preparation using [3H]8-OH-DPAT

- Ki: 5.3 nM
Structure (SMILES): CCCN(CC1CC1)[C@H]1CCc2ccc3[nH]c(C(N)=O)cc3c2C1
